In experiment [1] the target is T1, Muscarinic acetylcholine receptor M3 (Cavia porcellus, UniProt Q8VH26). As to the kind of experiment: Muscarinic acetylcholine receptor M3 agonistic/antagonistic activity in guinea pig ileum. The experiment is classed as functional, tissue-based.
In experiment [2] the target is T1, Muscarinic acetylcholine receptor M3. As to the kind of experiment: Dissociation constant for complex with muscarinic acetylcholine receptor M3 of guinea pig ileum. The experiment is classed as tissue-based.
Experiment [3] addresses Muscarinic acetylcholine receptor. The experiment in a line: Displacement of [3H]3-quinuclidinyl benzilate ([3H]-QNB) from muscarinic acetylcholine receptor of rat cerebral cortex. The experiment is classed as tissue-based.
Experiment [4] deals with Muscarinic acetylcholine receptor M3 (Cavia porcellus) (UniProt Q8VH26). As to the kind of experiment: Relative efficacies determined with oxotremorine as the reference in guinea pig ileum, as a measure of muscarinic acetylcholine receptor M3 agonistic activity. The experiment is classed as functional, tissue-based.
For experiment [5] the target is unchanged. The experiment in a line: Maximum contractile response relative to carbachol (E max) in guinea pig ileum as muscarinic acetylcholine receptor M3 agonistic/antagonistic activity. In kind it is functional, tissue-based.

T1 sequence (Q8VH26 whole entry): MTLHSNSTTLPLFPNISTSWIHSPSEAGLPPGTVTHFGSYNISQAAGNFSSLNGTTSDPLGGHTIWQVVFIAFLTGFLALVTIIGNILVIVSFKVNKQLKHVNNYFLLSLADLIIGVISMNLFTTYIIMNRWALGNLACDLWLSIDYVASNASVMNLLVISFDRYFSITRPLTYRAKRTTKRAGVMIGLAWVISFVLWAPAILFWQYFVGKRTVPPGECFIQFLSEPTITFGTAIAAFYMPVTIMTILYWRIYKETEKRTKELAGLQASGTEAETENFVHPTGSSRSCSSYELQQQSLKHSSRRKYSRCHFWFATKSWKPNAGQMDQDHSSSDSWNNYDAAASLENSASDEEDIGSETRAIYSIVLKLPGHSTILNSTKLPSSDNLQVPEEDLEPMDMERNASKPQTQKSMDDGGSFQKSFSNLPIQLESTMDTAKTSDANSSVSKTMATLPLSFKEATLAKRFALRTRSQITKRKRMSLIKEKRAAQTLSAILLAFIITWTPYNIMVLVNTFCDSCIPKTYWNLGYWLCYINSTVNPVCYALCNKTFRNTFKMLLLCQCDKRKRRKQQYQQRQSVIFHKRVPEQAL
Muscarinic acetylcholine receptor M3 (Cavia porcellus), sequence (Q8VH26 1-587): as the sequence (Q8VH26 whole entry) above

A word on the EC50: it is the concentration needed to bring the measured effect to its halfway point. Read a high EC50 as a less potent agent. As a reminder, the Kd is the concentration at which binding is half-saturated. In general, Ki refers to a measure of affinity in units of concentration, obtained from inhibition or displacement. Read a low Ki as a stronger hold on the target. `CNC(=O)N(C)CC#CCN1CCCC1` had an EC50 in experiment [1] of 2160 nM. In experiment [2], this compound had a Kd of 26.4 µM. For the same compound, the Ki in experiment [3] turned out to be 15.8 µM. Moreover, in experiment [4], the Efficacy was found to be 0.53. In experiment [5], this compound returned an Emax of 1.
The compound `CC(=O)N(C)C(C)C#CCN1CCCC1` (centres undefined) gave an EC50 in experiment [1] of 190 nM. This compound also had a Kd in experiment [2] of 0.24 µM. Moreover, in experiment [4], the Efficacy was 0.013. The Emax in experiment [5] worked out at 0.83.
For the compound `CC1CCN(CC#CCN2CCCC2)C1=O` (centres undefined), it took 500 nM to reach a half-maximal effect in experiment [1] (EC50). Moreover, the Kd in experiment [2] was 11.5 µM.
As for `CN(CC#CCN1CCCC1)C(N)=O`, the EC50 in experiment [1] is 44900 nM. In experiment [2], this compound came in with a Kd of 49 µM. The compound also yielded an inhibitory constant (Ki) in experiment [3] of 10.7 µM. This compound registered an Efficacy in experiment [4] of 0.08. This compound also had an Emax in experiment [5] of 0.57.
For `CN1CCN(CC#CCN2CCCC2)C1=O` the same measures were 100 nM, 2.9 µM, 1.6 µM, 0.21 and 1.
Compound `O=C1CNC(=O)N1CC#CCN1CCCC1` had an EC50 in experiment [1] of 46400 nM. The Kd in experiment [2] is 100 µM. Further, the Ki in experiment [3] was 17.2 µM. Further, the Efficacy in experiment [4] was determined as 0.12. The Emax in experiment [5] came out at 0.37.
Compound `O=C1CCCN1CC#CCN1CCCC1` [OXOTREMORINE] displayed an EC50 in experiment [1] of 50 nM. Further, in experiment [2], the Kd stood at 1.2 µM. The Ki in experiment [3] came out at 0.23 µM. For the same compound, the Efficacy in experiment [4] stood at 1. Besides, in experiment [5], the Emax turned out to be 1.
As for `CC(=O)N1CCN(CC#CCN2CCCC2)C1=O`, in experiment [1], the EC50 was > 300000 nM. Moreover, in experiment [3], the Ki was found to be 27.4 µM. In experiment [4], this compound had an Efficacy of 0. The compound further came in with an Emax in experiment [5] of 0.
`CC(C#CCN1CCCC1)N(C)C(N)=O` (centres undefined) registered a Kd in experiment [2] of 0.71 µM. For the same compound, the Ki in experiment [3] came to 0.42 µM. In experiment [4], this compound displayed an Efficacy of 0. In experiment [5], the Emax turned out to be 0.
For `O=CN1CCN(CC#CCN2CCCC2)C1=O`, in experiment [1], the EC50 came to 8600 nM. Further, the Kd in experiment [2] turned out to be 20.9 µM. The Ki in experiment [3] came out at 26.4 µM. Moreover, in experiment [4], the Efficacy worked out at 0.14. Also, the Emax in experiment [5] was determined as 1.
As for `CC(C#CCN1CCCC1)N1CCCC1=O` (centres undefined), the Kd in experiment [2] is 0.091 µM. The compound also had a Ki in experiment [3] of 0.059 µM. Moreover, the Efficacy in experiment [4] is 0. In experiment [5], this compound showed an Emax of 0.
In experiment [4], `C[N+](C)(C)CCOC(N)=O` returned an Efficacy of 5.71. This compound also came in with an Emax in experiment [5] of 1.
In experiment [2], `CC(C#CCN1CCCC1)N1CCNC1=O` (centres undefined) registered a Kd of 0.48 µM. Besides, in experiment [3], the Ki amounted to 0.64 µM. In experiment [4], this compound returned an Efficacy of 0. Further, the Emax in experiment [5] is 0.
`O=C1NCCN1CC#CCN1CCCC1` registered an EC50 in experiment [1] of 2670 nM. The Kd in experiment [2] was 30.3 µM. In addition, the Ki in experiment [3] amounted to 6.5 µM. The same compound showed an Efficacy in experiment [4] of 0.49. The same compound showed an Emax in experiment [5] of 1.
For `CNC(=O)N(C)C(C)C#CCN1CCCC1` (centres undefined) the same measures were 2110 nM, 7.5 µM, 4.2 µM, 0.18 and 1.

The values above are taken from ChEMBL document CHEMBL1125543, “Urea and 2-imidazolidone derivatives of the muscarinic agents oxotremorine and N-methyl-N-(1-methyl-4-pyrrolidino-2-butynyl)acetamide” (J Med Chem, 1992).
